From US20180049438A1, “NITRIFICATION INHIBITOR COMPOSITIONS AND METHODS FOR PREPARING THE SAME” (DOW AGROSCIENCES LLC, priority 2014, published 2018)

Experiment: Solubility properties of the water soluble polar solvents (nitrapyrin solubility, water solubility)
Conditions: water solubility of the polar solvent

water solubility: 100%
Compound: COC(C)COC(C)CO (stereo not shown) [Dowanol DPM, dipropylene glycol monomethyl ether]
